Test results taken from patent US12383577B2, “Polysaccharide compound with a defined molecular structure that can eliminate the toxic side effects of chemotherapy drugs” (SHENZHEN YANDAI INVESTMENT CO., LTD, priority 2023, dated 2025).
Marks after values point to notes of the source that are not given here.

Legend:
[1] = LLC-bearing mice study: mortality, survival time, body weight, spleen and thymus indices; format: in vivo, C57 mice
Description: Healthy LLC cells were inoculated subcutaneously into the left shoulder of 8 healthy male C57 mice. Once tumors reached a volume of 2,000-3,000 mm3, they were harvested and homogenized to prepare a homogenate suspension. This suspension was then injected subcutaneously into the axilla of 52 healthy male C57 mice to establish a solid tumor model. Once all mouse tumors averaged a volume of about 180 mm3, mice were randomized into groups based on tumor volume and were administered the respective drugs or drug solvents via oral gavage or intraperitoneal injection for 18 consecutive days. Longest and shortest diameters of tumors were measured every three days to calculate tumor volume, and mouse weights were recorded every three days. At the end of the experiment, tumors, spleens, and thymuses were harvested and weighed to calculate tumor, spleen, and thymus indices.
(§1) Spleen and thymus organ coefficients: After the last dose, spleen, thymus, and tumor weights are measured, and organ coefficients are calculated.

[2] = tested on: orthotopic H22-bearing mice; test: Orthotopic H22-bearing mice: liver tumor by small animal in vivo imaging; design: species or system C57 mice; details: Kanglaite soft capsule 1404 mg/kg oral, GLP-2 low dose 130 mg/kg oral
Description: An additional 6 mice served as the normal control group. […] The proposed clinical dose for Kanglaite soft capsules is 0.45 g per capsule, 6 capsules per dose, 4 doses per day, which totals 10.8 g per day. […] This study used the proposed clinical dose as a basis for the experiment. […] [table] Tumor volume measurement: Tumor volume changes were measured weekly using small animal in vivo imaging technology.

H22-bearing mice = test: Antitumor effect of GLP-2 combined with chemotherapy on H22-bearing mice (tumor volume, tumor index, inhibition rates); format: in vivo, C57 mice; details: for Tumor growth inhibition rate vs. the model control group: by tumor weight, cisplatin 3 mg/kg i.p. alone or + GLP-2 low dose 50 mg/kg oral
Description: A homogenate suspension of H22 mouse hepatoma was injected subcutaneously under the axilla of 45 healthy male C57 mice to create a solid tumor model. Once all mouse tumors averaged a volume of about 150 mm3, mice were randomized into groups based on tumor volume and were administered the respective drugs or drug solvents via oral gavage or intraperitoneal injection for 18 consecutive days. Longest and shortest diameters of tumors were measured every three days to calculate tumor volume, and mouse weights were recorded every three days. At the end of the experiment, tumors, spleens, and thymuses were harvested and weighed to calculate tumor, spleen, and thymus indices. […] [table] […] Where TRTV is the relative tumor volume in the experimental group, and CRTV is the relative tumor volume in the model control group. Relative tumor volume (RTV)=Vt/V0, where Vt is the tumor volume on day t of dosing, and V0 is the tumor volume at the time of grouping. […] Where T represents the average tumor weight in the treatment group, and C represents the average tumor weight in the model control group. […] Spleen and thymus organ coefficients: After the last dose, spleen, thymus, and tumor weights are measured, and organ coefficients are calculated.

[3] = tested on: lymphocyte subtypes CD3+/CD4+ and CD3+/CD8+ in the blood; test: Orthotopic H22-bearing mice study: blood CD3+/CD4+ and CD3+/CD8+ by flow cytometry; format: in vivo, C57 mice; details: blood after last dose, cisplatin 4 mg/kg i.p., Kanglaite soft capsule 1404 mg/kg oral, GLP-2 low dose 130 mg/kg oral
Description: (§2) An additional 6 mice served as the normal control group.
CD4^+and CD8^+content measurement: After the last dose, lymphocyte subtypes CD3^+/CD4^+and CD3^+/CD8^+in the blood were measured using flow cytometry.

[4] = Orthotopic H22-bearing mice study: routine blood tests and liver/kidney function indicators; format: in vivo, C57 mice; details: blood after last dose, cisplatin 4 mg/kg i.p., Kanglaite soft capsule 1404 mg/kg oral, GLP-2 low dose 130 mg/kg oral
Description: as §2
Hematological tests: After the last dose, routine blood tests (WBC and RBC) and biochemical tests (liver and kidney functions) were performed.

LLC-bearing mice = test: Antitumor effect of GLP-2 combined with chemotherapy on LLC-bearing mice (tumor volume, tumor index, inhibition rates); format: in vivo, C57 mice
Description: Healthy LLC cells were inoculated subcutaneously into the left shoulder of 8 healthy male C57 mice. […] This suspension was then injected subcutaneously into the axilla of 52 healthy male C57 mice to establish a solid tumor model. Once all mouse tumors averaged a volume of about 180 mm3, mice were randomized into groups based on tumor volume and were administered the respective drugs or drug solvents via oral gavage or intraperitoneal injection for 18 consecutive days. Longest and shortest diameters of tumors were measured every three days to calculate tumor volume, and mouse weights were recorded every three days. At the end of the experiment, tumors, spleens, and thymuses were harvested and weighed to calculate tumor, spleen, and thymus indices. […] [table] […] Where TRTV is the relative tumor volume in the experimental group, and CRTV is the relative tumor volume in the model control group. Relative tumor volume (RTV)=Vt/V0, where Vt is the tumor volume on day t of dosing, and V0 is the tumor volume at the time of grouping. […] Where T represents the average tumor weight in the treatment group, and C represents the average tumor weight in the model control group. […] Spleen and thymus organ coefficients: After the last dose, spleen, thymus, and tumor weights are measured, and organ coefficients are calculated.

[5] = Orthotopic H22-bearing mice study: mortality, body weight, organ coefficients; format: in vivo; details: Kanglaite soft capsule 1404 mg/kg oral, GLP-2 low dose 130 mg/kg oral
Text: as §2

[6] = H22-bearing mice study: mortality, survival time, body weight, spleen and thymus indices; format: in vivo, C57 mice
Description: A homogenate suspension of H22 mouse hepatoma was injected subcutaneously under the axilla of 45 healthy male C57 mice to create a solid tumor model. Once all mouse tumors averaged a volume of about 150 mm3, mice were randomized into groups based on tumor volume and were administered the respective drugs or drug solvents via oral gavage or intraperitoneal injection for 18 consecutive days. Longest and shortest diameters of tumors were measured every three days to calculate tumor volume, and mouse weights were recorded every three days. At the end of the experiment, tumors, spleens, and thymuses were harvested and weighed to calculate tumor, spleen, and thymus indices.
as §1

[7] = D0, cisplatin 4 mg/kg i.p. alone or + GLP-2 low dose 50 mg/kg oral
[8] = D3, cisplatin 4 mg/kg i.p. alone or + GLP-2 low dose 50 mg/kg oral
[9] = D6, cisplatin 4 mg/kg i.p. alone or + GLP-2 low dose 50 mg/kg oral
[10] = D9, cisplatin 4 mg/kg i.p. alone or + GLP-2 low dose 50 mg/kg oral
[11] = D12, cisplatin 4 mg/kg i.p. alone or + GLP-2 low dose 50 mg/kg oral
[12] = D15, cisplatin 4 mg/kg i.p. alone or + GLP-2 low dose 50 mg/kg oral
[13] = D18, cisplatin 4 mg/kg i.p. alone or + GLP-2 low dose 50 mg/kg oral
[14] = D0, cisplatin 3 mg/kg i.p. alone or + GLP-2 low dose 50 mg/kg oral
[15] = D3, cisplatin 3 mg/kg i.p. alone or + GLP-2 low dose 50 mg/kg oral
[16] = D6, cisplatin 3 mg/kg i.p. alone or + GLP-2 low dose 50 mg/kg oral
[17] = D9, cisplatin 3 mg/kg i.p. alone or + GLP-2 low dose 50 mg/kg oral
[18] = D12, cisplatin 3 mg/kg i.p. alone or + GLP-2 low dose 50 mg/kg oral
[19] = D15, cisplatin 3 mg/kg i.p. alone or + GLP-2 low dose 50 mg/kg oral
[20] = D18, cisplatin 3 mg/kg i.p. alone or + GLP-2 low dose 50 mg/kg oral
[21] = 14 days, cisplatin 4 mg/kg i.p.
[22] = 18 days, cisplatin 3 mg/kg i.p. alone or + GLP-2 low dose 50 mg/kg oral

N.N.[Cl][Pt][Cl] [Cisplatin]
Number of deaths ([1]; 18 days, cisplatin 4 mg/kg i.p. alone or + GLP-2 low dose 50 mg/kg oral): 2 | Weight [1, 7]: 20.8 ± 1.4 g | Weight [1, 8]: 20.7 ± 1.3 g | Weight [1, 9]: 20.4 ± 1 g | Weight [1, 10]: 19.7± 0.8*^+ g | Weight [1, 11]: 18.5 ± 0.6*+ g | Weight [1, 12]: 18.2± 1.2*^+ g | Weight [1, 13]: 17.9± 1.4*^+ g | Survival time ([1]; cisplatin 4 mg/kg i.p. alone or + GLP-2 low dose 50 mg/kg oral): 17.1 ± 1.9 days | Tumor ([2]; W0, cisplatin 4 mg/kg i.p.): 3756000 ± 2439052 P/s/cm^2/sr | Tumor ([2]; W1, cisplatin 4 mg/kg i.p.): 12898500 ± 3588676 P/s/cm^2/sr | Tumor ([2]; W2, cisplatin 4 mg/kg i.p.): 11871333 ± 2780016^& P/s/cm^2/sr | Tumor volume (H22-bearing mice; [14]): 167.9 ± 42.2 mm^3 | Tumor volume (H22-bearing mice; [15]): 205.9 ± 122.5 mm^3 | Tumor volume (H22-bearing mice; [16]): 417.4 ± 228.3 mm^3 | Tumor volume (H22-bearing mice; [17]): 577.3 ± 420.2 mm^3 | Tumor volume (H22-bearing mice; [18]): 798± 676.5^+ mm^3 | Tumor volume (H22-bearing mice; [19]): 952.7± 711.9^+ mm^3 | Tumor volume (H22-bearing mice; [20]): 1097± 805.3^+ mm^3 | Tumor growth inhibition rate vs. the model control group (H22-bearing mice): 57.3^+ % | Tumor growth inhibition rate vs. the model control group (H22-bearing mice; listed as cisplatin): 57.3% | CD3^+/CD4^+ [3]: 4.26 ± 0.04 | CD3^+/CD8^+ [3]: 4.21 ± 0.81 | ALT [4]: 115 ± 39 U/L | AST [4]: 771 ± 153 UL | BUN [4]: 13.52 ± 4.94 mmol/L | CRE [4]: 18.9 ± 2.7 µmol/L | RBC [4]: 8.91 ± 0.22 10^12/L | WBC [4]: 4.41 ± 1.83 10^9/L | Tumor volume (LLC-bearing mice; [7]): 193 ± 41.9 mm^3 | Tumor volume (LLC-bearing mice; [8]): 350.8 ± 138.5 mm^3 | Tumor volume (LLC-bearing mice; [9]): 692.4± 215.3^+ mm^3 | Tumor volume (LLC-bearing mice; [10]): 956.4± 394^+ mm^3 | Tumor volume (LLC-bearing mice; [11]): 1186.6± 386.4^+ mm^3 | Tumor volume (LLC-bearing mice; [12]): 1388.9± 448.2^+ mm^3 | Tumor volume (LLC-bearing mice; [13]): 1679.8± 439^+ mm^3 | Tumor growth inhibition rate vs. the model control group (LLC-bearing mice; by tumor weight, cisplatin 4 mg/kg i.p. alone or + GLP-2 low dose 50 mg/kg oral): 67.3% | Mortality rate [5, 21]: 50.0% | Number of deaths [5, 21]: 3 | Number of surviving animals [5, 21]: 3 | Weight ([5]; W0, cisplatin 4 mg/kg i.p.): 18.5 ± 1.3 g | Weight ([5]; W1, cisplatin 4 mg/kg i.p.): 16.9 ± 1.8 g | Weight ([5]; W2, cisplatin 4 mg/kg i.p.): 15.1 ± 1.6 g | Liver coefficient ([5]; cisplatin 4 mg/kg i.p.): 11.365 ± 3.599% | Spleen coefficient ([5]; cisplatin 4 mg/kg i.p.): 0.524± 0.295 % | Thymus coefficient ([5]; cisplatin 4 mg/kg i.p.): 0.078 ± 0.023 % | Mortality rate [6, 22]: 0.0% | Number of deaths [6, 22]: 0 | Weight [6, 14]: 20.6 ± 1.3 g | Weight [6, 15]: 20.8 ± 1.3 g | Weight [6, 16]: 21 ± 1.3 g | Weight [6, 17]: 21 ± 1.5 g | Weight [6, 18]: 20.7± 1.4^+ g | Weight [6, 19]: 20.5± 1.4^+ g | Weight [6, 20]: 19.9± 1.7^+ g | Survival time ([6]; cisplatin 3 mg/kg i.p. alone or + GLP-2 low dose 50 mg/kg oral): 18 ± 0 days
